Paper PMC12909347, “Disconnect between in vitro and in vivo efficacy of the MPS1 inhibitor NTRC 0066-0 against glioblastoma” (Cellular Oncology, 2026)

Columns and labels:
[1] = Pharmacokinetics and brain penetration in Abcb1a/b;Abcg2-/- mice; assay type: in vivo; details: for Plasma AUC, Abcb1a/b;Abcg2-/- vs WT mice: 10 mg/kg
Experimental: (§1) The pharmacokinetics of NTRC 0066-0 were analyzed in wild-type (WT), Abcb1a/b^−/−, Abcg2^−/−, Abcb1a/b^−/−;Abcg2^−/− and Abcb1a/b^−/−;Abcg2^−/−;Abcc4^−/− FVB mice. All knockout mice strains have been developed at the Netherlands Cancer Institute. For i.v. administration, NTRC0066-0 was formulated in DMSO: Cremophor EL: saline (1:1:8 v/v) and injected at a dose of 5 mg/kg. For i.p and oral administration, NTRC0066-0 was administered at 5, 10 or 20 mg/kg as indicated. Serial blood sampling was done by tail vein bleeding at specific time points. At terminal time points, blood was drawn by cardiac puncture followed by tissue collection. Plasma was obtained from whole blood by centrifugation (5 min, 5,000 rpm, 4 °C) and tissues were weighed and homogenized using a FastPrep®-24 (MP-Biomedicals, NY) in 1% (w/v) bovine serum albumin (Sigma-Aldrich) in water.
(§2) NTRC 0066-0 was extracted from in vitro and in vivo samples using liquid–liquid extraction with diethyl ether. Another MPS-1 inhibitor, Compound 5 (Cpd-5), was added to the samples as an internal standard. The dried organic phase was reconstituted in 30% methanol in water (v/v). Samples were measured using an LC-MS/MS system comprising an UltiMate 3000 LC Systems (Dionex, Sunnyvale, CA) and an API 4000 mass spectrometer (Sciex, Framingham, MA). Samples were injected on to a Securityguard C18 pre-column (Phenomenex, Utrecht, The Netherlands) connected to a ZORBAX Extend-C18 column (Agilent, Santa Clara, CA). Elution was done at a flow rate of 0.2 mL/min using a 5 min gradient from 20% to 95% B (mobile phase A was 0.1% HCOOH in water (v/v) and mobile phase B was methanol). 95% B was maintained for 3 min followed by re-equilibration at 20% B. Multiple reaction monitoring parameters were 566.2/391.4 (NTRC0066-0) and 581.6/397.0 (internal standard). Analyst® 1.6.2 software (Sciex) was used for system control and data analysis.
PK solver was used to determine pharmacokinetic parameters. The standard error of the oral bioavailability was calculated using the formula below: […]

P-gp = experiment: Brain penetration in Abcb1a/b-/- mice; assay type: in vivo; details: 1 h after 5 mg/kg i.v.
Experimental: as §1, §2

[2] = test system: orthotopic E98 GBM tumors; experiment: Orthotopic E98 GBM xenograft efficacy in Abcb1a/b;Abcg2-/- mice; assay type: in vivo
Experimental: Orthotopic GBM tumors were induced in Abcb1a/b; Abcg2^−/− mice by stereotactic injection of E98 cells expressing firefly luciferase (200,000 cells in 2 µL HBSS (Life Technologies) at an injection speed of 1 µL/min) at 2 mm lateral, 1 mm anterior and 3 mm ventral to the bregma. Tumor growth was monitored using bioluminescence imaging by injecting D-luciferin (150 mg/kg i.p.; Promega, Madison, WI) and subsequently imaging mice on an IVIS Spectrum Imaging System (PerkinElmer, Waltham, MA). Survival was monitored daily and the humane endpoint was defined as body weight loss exceeding 20%. Time-to-recurrence was defined as the number of days elapsed until the tumor regained its pre-treatment size. Tumors were treated with CT-guided radiotherapy (2–3.5 Gy per fraction) using an X-RAD 225Cx system (Precision X-Ray, North Branford, CT), temozolomide (10 mg/kg p.o. freshly prepared from powder in an aqueous solution containing 10% v/v ethanol), NTRC0066-0 (20, 10 or 5 mg/kg p.o. in an aqueous solution containing 10% v/v DMSO and 10% v/v Cremophor EL (Life Technologies)) or different combinations thereof, as described per experiment in the Figure legends.

[3] = test system: orthotopic E98 GBM tumors; experiment: Quantification of mitotic errors in E98 tumors; assay type: in vivo, mice; details: end-stage E98 tumors, 5/10 mg/kg b.i.d.x7d
Experimental: Tumor-bearing mouse brains were formalin-fixed, paraffin-embedded and coronal Sect. (10 μm) were sliced using an RM2255 microtome (Leica, Wetzlar, Germany). Sections were subsequently deparaffinized using xylene, incubated in citrate buffer for antigen retrieval, blocked with 4% (w/v) BSA in TBS-T, incubated with rabbit-α-pH3^Ser10 (1:250 for 3 h at room temperature; Merck Millipore, Burlington, MA), incubated with goat-α-rabbit-AF568 (1:250 for 45 min at room temperature; Thermo Fisher Scientific, Waltham, MA) and mounted with Vectashield hardset antifade mounting medium with DAPI (Vector Laboratories, Burlingame, CA). Mitotic errors were imaged and scored using a Deltavision ultra high resolution microscope (Applied Precision Inc., Issaquah, WA).

[4] = Abcb1a/b;Abcg2-/-, i.p. 10 mg/kg
[5] = Abcb1a/b;Abcg2-/-, p.o. 10 mg/kg
[6] = E98 tumors, 5/10 mg/kg b.i.d.x7d monotherapy
[7] = adjuvant: 5/10 mg/kg b.i.d.x7d after RT + TMZ vs RT + TMZ alone
[8] = recurrent E98 tumors after TMZ + RT, 20 mg/kg q.2d.x11d second-line
[9] = therapy-naive E98 tumors, 20 mg/kg q.2d.x11d monotherapy

CCc1cccc(CC)c1NC(=O)c1ccn2c1CCc1cnc(Nc3ccc(N4CCN(C)CC4)cc3OC)nc1-2 [NTRC 0066-0]
Lowest plasma trough concentration ([1]; 5 mg/kg p.o. morning + 10 mg/kg p.o. about 8 h later, 7 days (5/10 mg/kg b.i.d.x7d)): above 20 nM | Brain concentration vs threshold level of in vitro efficacy ([1]; 1, 4, 8 and 24 h after 20 mg/kg p.o.): remained well above the threshold level of in vitro efficacy | Concentration at 24 h, Abcb1a/b;Abcg2-/- vs WT mice ([1]; 24 h after 10 mg/kg): about 5 fold | Plasma concentration ([1]; 24 h after 20 mg/kg p.o.): 6 nM | Brain penetration (brain vs plasma) ([1]; Abcb1a/b;Abcg2-/- mice): 20 fold | Brain-plasma ratio ([1]; Abcb1a/b;Abcg2-/- mice): above 20 | Oral bioavailability (relative to i.p.) ([1]; Abcb1a/b;Abcg2-/- mice): about 50% | Brain concentration compared to Abcb1a/b-/- mice ([1]; Abcb1a/b;Abcg2-/- mice, 1 h after 5 mg/kg i.v.): did not display further increased | Brain-to-plasma ratio ([1]; Abcb1a/b;Abcg2-/- mice, 24 h after 10 mg/kg p.o. or i.p.): approximately 20 | Cmax [1, 4]: 1700 ± 160 nM | MRT [1, 4]: 4.3 ± 0.4 h | t1/2 [1, 4]: 3.4 ± 0.4 h | tmax [1, 4]: 0.8 ± 0.3 h | Plasma AUCi.p. ([1]; Abcb1a/b;Abcg2-/-, i.p. 10 mg/kg, 0-∞): 11,000 ± 2200 nM.h | Cmax [1, 5]: 550 ± 52 nM | MRT [1, 5]: 5.2 ± 0.5 h | t1/2 [1, 5]: 3.6 ± 0.2 h | tmax [1, 5]: 3.3 ± 1.5 h | F (bioavailability) ([1]; Abcb1a/b;Abcg2-/-, p.o. 10 mg/kg relative to i.p.): 43 ± 11% | Plasma AUCp.o. ([1]; Abcb1a/b;Abcg2-/-, p.o. 10 mg/kg, 0-∞): 4.7 ± 0.71 µM·h | Plasma AUC, Abcb1a/b;Abcg2-/- vs WT mice ([1]; after i.p. dosing): about 4 fold | Plasma AUC, Abcb1a/b;Abcg2-/- vs WT mice ([1]; after oral dosing): ~3 fold | Brain concentration compared to WT mice (P-gp): markedly increased | Brain-plasma ratio compared to WT mice (P-gp): markedly increased | Plasma concentration compared to WT mice (P-gp): similar | Survival [2, 6]: did not observe any delay in tumor growth (Fig. 4H) or survival | Tumor growth [2, 6]: did not observe any delay in tumor growth | Survival [2, 7]: not affected | Time-to-recurrence [2, 7]: not different between treatment groups | Tumor growth ([2]; adjuvant: 5/10 mg/kg b.i.d.x7d from day 3 after RT + TMZ (2 Gy + 10 mg/kg q.d.x2d) vs RT + TMZ alone): could not observe any effects on tumor growth | Animals with tumor growth delay [2, 8]: 2 out of 7 | Long-term survivors [2, 8]: one long-term survivor | Survival [2, 9]: did not result in reduced tumor growth (Fig. 4A) or improved survival | Tumor growth [2, 9]: did not result in reduced tumor growth | Number of mitotic errors in tumors [3]: did not increase the number of mitotic errors
